Structures can show the parent of a compound that is named as a salt. Where two headings read alike, the source gives them in different places. One block for each compound: values may come before it.
Assays:
[1] = rcm bond, Grubbs 2nd generation catalyst, dichloromethane, 25.0 °C
NCI-H1703 = experiment: Anti-proliferative effect (CellTiter-Glo, 72 h), NCI-H1703; format: cell-based; conditions: Homo sapiens, NCI-H1703 cells, median, read-out: IC50 antiproliferation assay NCI-H1703 [M] (median)
Procedure: (§1) The impact of compounds on the proliferation of different cell lines was assessed using the CellTiter-Glo® Luminescent Cell Viability reagent from Promega (G7573). Of note, SUDHL10 and SUDHL5 (DLBCL), NCI-H929 (Multiple Myeloma), A2780 (ovarian carcinoma) as well as MV-4-11(AML) cells are sensitive to MCL-1 inhibition.
(§2) In parallel, cells were plated in a reference (day 0) plate for time zero determination.
(§3) Rim wells were excluded. The cells were incubated for 72 h hours in a humidified incubator at 37° C. The day 0 plate was measured by adding 30 μl/well of CTG solution (CellTiter-Glo® Luminescent Cell Viability reagent, Promega G7573) to time zero wells in the reference plate followed by a 10 minutes incubation and luminescence reading at 0.1 ms, using the PHERAstar FS microplate reader (BMG Labtech).
(§4) After 72 h incubation, the treated plates were measured in the same way as the day 0 plate mentioned above.

SUDHL5 [2] = experiment: Induction of cytotoxicity (CellTiter-Glo, 5 h), SUDHL5; conditions: read-out: Cytotox SUDHL5 [M] (median), SUDHL5 cells, cytotoxicity induction, CellTiter-Glo, median
SUDHL10 [3] = experiment: Induction of cytotoxicity (CellTiter-Glo, 5 h), SUDHL10; conditions: read-out: Cytotox SUDHL10 [M] (median), SUDHL10 cells, cytotoxicity induction, CellTiter-Glo, median
A2780 = experiment: Anti-proliferative effect (CellTiter-Glo, 72 h), A2780; format: cell-based; conditions: Homo sapiens, A2780, 72 h, A2780 cells, median, read-out: IC50 antiproliferation assay A2780 [M] (median)
Summary of the method: (§5)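 Anti-proliferative activity is derived from ATP-based luminescence (CellTiter-Glo) in cells exposed to compound for 72 h at 37 °C, set against a time zero plate read at seeding.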

SUDHL5 [4] = experiment: Anti-proliferative effect (CellTiter-Glo, 72 h), SUDHL5; format: cell-based; conditions: SUDHL5 cells, antiproliferation, median, read-out: Antiproli SUDHL5 [M] (median)
Summary of the method: as §5

MCL-1 = MCL-1 (Homo sapiens, UniProt Q07820); experiment: Protein-protein interaction assay MCL-1/Noxa BH3 peptide (MCL-1 assay), TR-FRET; format: binding; conditions: MBP-MCL-1 / Noxa BH3-derived peptide, median
MCL-1, sequence (Q07820 whole entry): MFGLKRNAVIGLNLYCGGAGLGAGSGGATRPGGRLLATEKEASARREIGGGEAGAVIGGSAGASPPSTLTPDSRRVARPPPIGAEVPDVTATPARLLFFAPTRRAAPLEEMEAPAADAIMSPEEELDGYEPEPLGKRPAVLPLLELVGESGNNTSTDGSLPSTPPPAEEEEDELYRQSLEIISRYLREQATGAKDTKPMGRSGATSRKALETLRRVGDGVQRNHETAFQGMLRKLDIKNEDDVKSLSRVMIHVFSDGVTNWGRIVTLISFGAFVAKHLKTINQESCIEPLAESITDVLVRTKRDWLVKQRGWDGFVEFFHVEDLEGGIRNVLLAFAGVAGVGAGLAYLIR
Summary of the method: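 MBP-MCL-1 (1 nM final) was preincubated 10 min at 22 °C with compounds (11 concentrations, 0.1 nM–20 μM, duplicates) in Tris pH 7 buffer with NaCl, KF, Tween-20, DTT and BGG. After 1 h at 22 °C in the dark plus overnight at 4 °C, anti-MBP Eu-cryptate/streptavidin-XL665 TR-FRET was read; IC50 came from a 4-parameter fit.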

SK-MEL-2 = experiment: Anti-proliferative effect (CellTiter-Glo, 72 h), SK-MEL-2; format: cell-based; conditions: Homo sapiens, SK-MEL-2 cells, median, read-out: IC50 antiproliferation assay SK-MEL-2 [M] (median)
Procedure: Assessment of the Anti-Proliferative Effect of Compounds in Different Cell Lines
as §1, §2, §3, §4

SUDHL10 [5] = experiment: Induction of caspase-3/7 activity (Caspase-Glo 3/7), SUDHL10; format: cell-based; conditions: caspase-3/7 induction, SUDHL10 cells, 3 h treatment; median
Summary of the method: (§6)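 Caspase-Glo 3/7 luminescence measured after 3 h compound exposure at 37 °C in SUDHL10 and SUDHL5 cells. EC50 values come from background-corrected signals, with curve bottom set to 1 and plateau set to maximal induction by the reference compound.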

SUDHL5 [6] = experiment: Induction of caspase-3/7 activity (Caspase-Glo 3/7), SUDHL5; format: cell-based; conditions: caspase-3/7 induction, SUDHL5 cells, 3 h treatment; median
Summary of the method: as §6

MV-4-11 = experiment: Anti-proliferative effect (CellTiter-Glo, 72 h), MV-4-11; format: cell-based; conditions: MV-4-11 cells, median, read-out: IC50 antiproliferation assay MV-4-11 [M] (median)
Summary of the method: as §5

Compound: CCOC(=O)c1c(CCCO[Si](C)(C)C(C)(C)C)c2cccc3c2n1CC=CCOCc1c-3c(C)nn1C (mixture of isomers)
ring closure, yield of all isomers ([1]; from C=CCOCc1c(-c2cccc3c(CCCO[Si](C)(C)C(C)(C)C)c(C(=O)OCC)n(CC=C)c23)c(C)nn1C, 48.0 mM, 16.0 h): 52.7%

Compound: CCOC(=O)c1c(CCCOc2cccc3ccccc23)c2cccc3c2n1CC=CCOCCc1c-3c(C)nn1C (mixture of isomers)
ring closure, yield of all isomers ([1]; from C=CCOCCc1c(-c2cccc3c(CCCOc4cccc5ccccc45)c(C(=O)OCC)n(CC=C)c23)c(C)nn1C, 50.9 mM, 48.0 h): 47.5%

Compound: CCOC(=O)c1c(CCCOc2cccc3ccccc23)c2cccc3c2n1CC=CCOCc1c-3c(CN2CCOCC2)nn1C (mixture of isomers)
ring closure, yield of all isomers ([1]; from C=CCOCc1c(-c2cccc3c(CCCOc4cccc5ccccc45)c(C(=O)OCC)n(CC=C)c23)c(CN2CCOCC2)nn1C, 79.5 mM, 48.0 h): 14.2%

Compound: CCOC(=O)c1c(CCCOc2cccc3ccccc23)c2cccc3c2n1CC=CCOCc1c-3c(COCc2ccccc2)nn1C (mixture of isomers)
ring closure, yield of all isomers ([1]; from C=CCOCc1c(-c2cccc3c(CCCOc4cccc5ccccc45)c(C(=O)OCC)n(CC=C)c23)c(COCc2ccccc2)nn1C, 76.8 mM, 72.0 h): 74.2%

Compound: CCOC(=O)c1c(CCCOc2cccc3ccccc23)c2cccc3c2n1CC=CCOCc1c-3c(COc2ccc(C3(O)CCOCC3)cc2)nn1C (mixture of isomers)
ring closure, yield of all isomers ([1]; from C=CCOCc1c(-c2cccc3c(CCCOc4cccc5ccccc45)c(C(=O)OCC)n(CC=C)c23)c(COc2ccc(C3(O)CCOCC3)cc2)nn1C, 80.0 mM, 72.0 h): 66.1%

Compound: CCOC(=O)c1c(CCCOc2cccc3ccccc23)c2cccc3c2n1CC=CCOCc1c-3c(COc2ccc(C3(OC)CCOCC3)cc2)nn1C (mixture of isomers)
ring closure, yield of all isomers ([1]; from C=CCOCc1c(-c2cccc3c(CCCOc4cccc5ccccc45)c(C(=O)OCC)n(CC=C)c23)c(COc2ccc(C3(OC)CCOCC3)cc2)nn1C, 78.4 mM, 72.0 h): 39.1%

Compound: CCOC(=O)c1c(CCCOc2cccc3ccccc23)c2cccc3c2n1CC=CCOCc1c-3c(COc2ccc(N3CCOCC3)cc2)nn1C (mixture of isomers)
ring closure, yield of all isomers ([1]; from C=CCOCc1c(-c2cccc3c(CCCOc4cccc5ccccc45)c(C(=O)OCC)n(CC=C)c23)c(COc2ccc(N3CCOCC3)cc2)nn1C, 39.1 mM, 44.0 h): 53.3%

Compound: CCOC(=O)c1c(CCCOc2cccc3ccccc23)c2cccc3c2n1CC=CCOCc1c-3c(COc2ccccc2)nn1C (mixture of isomers)
ring closure, yield of all isomers ([1]; from C=CCOCc1c(-c2cccc3c(CCCOc4cccc5ccccc45)c(C(=O)OCC)n(CC=C)c23)c(COc2ccccc2)nn1C, 78.3 mM, 24.0 h): 56.9%

Compound: CCOC(=O)c1c(CCCOc2cccc3ccccc23)c2cccc3c2n1CC=CCOCc1c-3cnn1C (mixture of isomers)
ring closure, yield of all isomers ([1]; from C=CCOCc1c(-c2cccc3c(CCCOc4cccc5ccccc45)c(C(=O)OCC)n(CC=C)c23)cnn1C, 78.2 mM, 24.0 h): 42.1%

Compound: CCOC(=O)c1c(CCCOc2cccc3ccccc23)c2cccc3c2n1CC=CCOCc1nn(C)c(C)c1-3 (mixture of isomers)
ring closure, yield of all isomers ([1]; from C=CCOCc1nn(C)c(C)c1-c1cccc2c(CCCOc3cccc4ccccc34)c(C(=O)OCC)n(CC=C)c12, 77.8 mM, 16.0 h): 15%

Compound: CCOCc1nn(C)c2c1-c1cccc3c(CCCOc4cccc5ccccc45)c(C(=O)OCC)n(c13)CC=CCOC2 (mixture of isomers)
ring closure, yield of all isomers ([1]; from C=CCOCc1c(-c2cccc3c(CCCOc4cccc5ccccc45)c(C(=O)OCC)n(CC=C)c23)c(COCC)nn1C, 76.0 mM, 24.0 h): 47.3%

IC50 (NCI-H1703): 1.36e-05 M
IC50 (A2780): 2.15e-05 M
IC50 (SUDHL5 [4]; 72 h incubation): 1.89e-06 M
IC50 (MCL-1): 0.00037 µM
IC50 (SK-MEL-2): 2e-05 M
EC50 (SUDHL10 [5]): 4.6 µM
EC50 (SUDHL5 [6]): 1.14 µM
IC50 (MV-4-11; Homo sapiens, MV4-11, 72 h): 7.02e-06 M
Compound: CCc1nn(C)c2c1-c1c(C)ccc3c(CCCOc4cccc5cc(F)ccc45)c(C(=O)O)n(c13)CCCCOC2 (single isomer, unassigned) [Example 267, (+)-3-ethyl-7-{3-[(6-fluoronaphthalen-1-yl)oxy]propyl}-1,4-dimethyl-1,10,11,12,13,15-hexahydropyrazolo[4′,3′:9,10][1,6]oxazacycloundecino[8,7,6-hi]indole-8-carboxylic Acid]
IC50 (SUDHL5 [2]; 5 h incubation): 1.11e-06 M
IC50 (SUDHL10 [3]; 5 h incubation): 3.66e-06 M

IC50 (NCI-H1703): 4.85e-06 M
IC50 (A2780): 8.66e-06 M
IC50 (SUDHL5 [4]; 72 h incubation): 5.78e-07 M
IC50 (MCL-1): 0.00109 µM
IC50 (SK-MEL-2): 1.25e-05 M
EC50 (SUDHL10 [5]): 0.906 µM
EC50 (SUDHL5 [6]): 0.385 µM
IC50 (MV-4-11): 3.69e-06 M
Compound: CCc1c2c(nn1C)COCCCCn1c(C(=O)O)c(CCCOc3cccc4cc(F)ccc34)c3cccc-2c31 (single isomer, unassigned) [Example 282, (+)-3-ethyl-7-{3-[(6-fluoronaphthalen-1-yl)oxy]propyl}-2-methyl-2,10,11,12,13,15-hexahydropyrazolo[4′,3′:9,10][1,6]oxazacycloundecino[8,7,6-hi]indole-8-carboxylic acid-N-ethylethanamine Salt]
IC50 (SUDHL5 [2]; 5 h incubation): 6.16e-07 M
IC50 (SUDHL10 [3]; 5 h incubation): 7.8e-07 M

IC50 (NCI-H1703): 6.98e-06 M
IC50 (A2780): 1.22e-05 M
IC50 (SUDHL5 [4]; 72 h incubation): 9.39e-07 M
IC50 (MCL-1): 0.000782 µM
IC50 (SK-MEL-2): 1.09e-05 M
EC50 (SUDHL10 [5]): 1.41 µM
EC50 (SUDHL5 [6]): 0.646 µM
IC50 (MV-4-11): 3.61e-06 M
Compound: Cc1c2c(nn1CCN1CCOCC1)COCCCCn1c(C(=O)O)c(CCCOc3cccc4cc(F)ccc34)c3cccc-2c31 (single isomer, unassigned) [Example 285, (+)-7-{3-[(6-fluoronaphthalen-1-yl)oxy]propyl}-3-methyl-2-[2-(morpholin-4-yl)ethyl]-2,10,11,12,13,15-hexahydropyrazolo[4′,3′:9,10][1,6]oxazacycloundecino[8,7,6-hi]indole-8-carboxylic acid-N-ethylethanamine Salt]
IC50 (SUDHL5 [2]; 5 h incubation): 7.5e-07 M
IC50 (SUDHL10 [3]; 5 h incubation): 2.81e-06 M

IC50 (NCI-H1703): 1.76e-05 M
IC50 (A2780): > 3.3e-05 M
IC50 (SUDHL5 [4]; 72 h): 1.54e-06 M
IC50 (MCL-1): 0.00149 µM
IC50 (SK-MEL-2): > 3.3e-05 M
EC50 (SUDHL10 [5]): 5.85 µM
EC50 (SUDHL5 [6]): 1.57 µM
IC50 (MV-4-11; Homo sapiens, MV4-11, 72 h): 9.86e-06 M
Compound: CCc1nn(C)c2c1-c1cccc3c(CCCOc4cccc5cc(F)ccc45)c(C(=O)O)n(c13)CCCCOC2 (single isomer, unassigned) [Example 288, (+)-3-ethyl-7-{3-[(6-fluoronaphthalen-1-yl)oxy]propyl}-1-methyl-1,10,11,12,13,15-hexahydropyrazolo[4′,3′:9,10][1,6]oxazacycloundecino[8,7,6-hi]indole-8-carboxylic Acid]
IC50 (SUDHL5 [2]; 5 h): 1.68e-06 M
IC50 (SUDHL10 [3]; 5 h): 6.54e-06 M
